Test results reported in PubChem BioAssay (NCI).
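48-hour exposure; five concentrations; linearly interpolated endpoints. GI50 marks 50% less growth. TGI: total growth inhibition.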

Tests used:
Assay in all cases: NCI anticancer screen, dose series, 48 h
HS 578T breast = test system: HS 578T breast
HT29 colon = test system: HT29 colon
K-562 leukemia = test system: K-562 leukemia
MOLT-4 leukemia = test system: MOLT-4 leukemia
OVCAR-8 ovarian = test system: OVCAR-8 ovarian
SF-539 CNS = test system: SF-539 CNS
SK-MEL-2 melanoma = test system: SK-MEL-2 melanoma
SK-MEL-28 melanoma = test system: SK-MEL-28 melanoma
SW-620 colon = test system: SW-620 colon
UACC-62 melanoma = test system: UACC-62 melanoma

Row | Compound | GI50 (HS 578T breast) [µM] | TGI (HS 578T breast) [µM] | GI50 (HT29 colon) [µM] | TGI (HT29 colon) [µM] | GI50 (K-562 leukemia) [µM] | TGI (K-562 leukemia) [µM] | GI50 (MOLT-4 leukemia) [µM] | TGI (MOLT-4 leukemia) [µM] | GI50 (OVCAR-8 ovarian) [µM] | TGI (OVCAR-8 ovarian) [µM] | GI50 (SF-539 CNS) [µM] | TGI (SF-539 CNS) [µM] | GI50 (SK-MEL-2 melanoma) [µM] | TGI (SK-MEL-2 melanoma) [µM] | GI50 (SK-MEL-28 melanoma) [µM] | TGI (SK-MEL-28 melanoma) [µM] | GI50 (SW-620 colon) [µM] | TGI (SW-620 colon) [µM] | GI50 (UACC-62 melanoma) [µM] | TGI (UACC-62 melanoma) [µM]
1 | CC([C@H]1CCC2C3CCC4C[C@@H](NC=O)CC[C@]4(C)C3CC[C@@]21C)N(C)C (some centres not stated) | 2.69 | 12 | 0.595 | 2.42 | 0.862 | 3.18 | 1.84 | 8.71 | 6.48 | > 46.4 | 1.37 | 2.79 | 5.71 | 13.8 | 1.65 | 3.08 | 1.85 | 3.95 | 2.04 | 4.08
2 | FC(F)(F)c1cccc(COCCN2CCN(Cc3cccc(C(F)(F)F)c3)CC2)c1 |  | 38.2 |  | 44.6 |  | > 100 |  | 41.9 |  | 41.2 |  | 39 |  |  |  | 34.6 |  | 28.3 |  | 28.6
3 | CC(=O)C1CC2(c3ccc(C)cc3)C(c3ccc(C)cc3)=C(c3ccc(C)cc3)C1(c1ccc(C)cc1)S2=O (configuration not stated) | > 100 | > 100 | > 100 | > 100 | > 100 | > 100 | > 100 | > 100 | 88.2 | > 100 | > 100 | > 100 | > 100 | > 100 | > 100 | > 100 | > 100 | > 100 | > 100 | > 100
4 | COc1ccc2nc(-c3ccccc3)cc(Nc3ccc(C(C)=O)cc3)c2c1 | 8.2 | 27.1 | 9.89 | > 100 | 1.14 | 11.7 | 1.98 | 4.93 | 4.17 | 35.8 | 2.37 | 4.21 | 38.7 | > 100 | 29.5 | > 100 | 5.08 | 18.5 | 2.31 | 5.13
5 | Cc1cccc(C)c1NC(=O)/C(Cl)=C(/Cl)C(=O)O |  | 83.2 |  | 39.3 |  | 17.4 |  | 27.5 |  | 40.9 |  | 53.9 |  | 31.5 |  | 35.1 |  | 14.9 |  | 20.6
6 | c1ccc2[nH]c(SSc3nc4ncncc4[nH]3)nc2c1 | 8.92 | > 100 | 2.58 | > 100 | 0.278 | > 100 | 0.486 | > 100 | 3.32 | > 100 | 0.989 | > 100 | 2.72 | > 100 | 27.8 | > 100 | 3.24 | > 100 | 0.729 | > 100
7 | CCOC(=O)Cc1csc(/N=C2\NC(=O)/C(=C3\C(=O)N(C)c4ccccc43)S2)n1 | 66.7 | > 100 | 44.5 | > 100 | 36 | > 100 | 40.3 | > 100 | 65.3 | > 100 | 43.8 | > 100 | 24.2 | > 100 | 80.3 | > 100 | 52.1 | > 100 | 26.1 | 83.6
8 | COc1ccc2c(c1)nc(N)c1c3cc(OC)c(OC)cc3cn21 | 0.159 | 32.3 |  | 11.2 | < 0.01 | 11.7 | 0.281 | 12.6 | 0.123 | 13.6 | 0.0697 | 1.69 | 2.13 | 24.1 |  | 19.9 | < 0.01 | 19.8 | < 0.01 | 21.7
9 | C=C(Cl)COC(=O)Nc1cccc(Cl)c1 |  | > 100 |  | > 100 |  | > 100 |  | > 100 |  | > 100 |  | > 100 |  | 58.5 |  | > 100 |  | > 100 |  | 59.5
10 | O=C(NC1CC1)c1ccc(-c2nc3ccc4[nH]ncc4c3c3c2CCCC3)cc1 | 1.06 | 3.37 | 2.05 | > 50 | 1.95 | > 50 | 1.75 | 20.1 | 2.34 | > 50 | 1.32 | 6.68 | 1.76 | 7.36 | 2.3 | 12.1 | 1.41 | 10.3 | 2.19 | 9.77
11 | CN(C)CCCN=C(N)N |  | > 100 |  | > 100 |  | > 100 |  | > 100 |  | > 100 |  | > 100 |  | > 100 |  | > 100 |  | > 100 |  | > 100
12 | CC1(C)NCCC[C@]2(C)[C@H]3C=CC4=C5C[C@](C)(CO)CC[C@]5(C)CC[C@@]4(C)[C@]3(C)CC[C@@H]12 | 3.2 | 13.2 | 3.25 | 13.8 | 3.18 | 10.8 | 2.46 | 6.8 | 2.56 | 6.66 | 2.69 | 9.26 | 3.31 | 12.2 | 5.87 | 18.4 | 5.76 | 18.8 | 3.13 | 10.9
13 | COc1cc(Cl)cc(-c2nn(C(=O)NCCN3CCN(C)CC3)cc2-c2ccncc2)c1 | 4.96 | 32.9 | 3.32 | 72.1 | 28.5 | > 100 | 29.4 | > 100 | 2.94 | > 100 | 2.84 | 22.6 | 19.3 | 46 | 5.31 | 40.6 | 33.1 | > 100 | 4.95 | 20.3
14 | OCC(O)C(O)C(O)C1SC(c2ccccc2)=NN1c1ccccc1 (configuration not stated) |  | > 100 |  | > 100 |  | > 100 |  | > 100 |  | > 100 |  | 98.7 |  | 93.2 |  | > 100 |  | > 100 |  | 74.2
